What was measured:
Experiment in all cases: KINOMEscan binding
Details in all cases: read-out: Percent Control
[1] = molecular target: T1, BMPR2 (Homo sapiens, UniProt Q13873)
T1 construct: purchased Eurofins DiscoverX KINOMEscan

[2] = molecular target: T2, RET (Homo sapiens, UniProt P07949)
T2 construct: purchased Eurofins DiscoverX KINOMEscan

[3] = molecular target: T3, CDKL3 (Homo sapiens, UniProt Q8IVW4)
T3 construct: purchased Eurofins DiscoverX KINOMEscan

[4] = molecular target: T4, PRKCH (Homo sapiens, UniProt P24723)
T4 construct: purchased Eurofins DiscoverX KINOMEscan

[5] = molecular target: T5, YANK2 (Homo sapiens, UniProt Q9NY57)
T5 construct: purchased Eurofins DiscoverX KINOMEscan

[6] = molecular target: T6, PRKCQ (Homo sapiens, UniProt Q04759)
T6 construct: purchased Eurofins DiscoverX KINOMEscan

[7] = molecular target: T7, ACVR2A (Homo sapiens, UniProt P27037)
T7 construct: purchased Eurofins DiscoverX KINOMEscan

[8] = molecular target: T8, p38-gamma (Homo sapiens, UniProt P53778)
T8 construct: purchased Eurofins DiscoverX KINOMEscan

[9] = molecular target: T9, EPHB4 (Homo sapiens, UniProt P54760)
T9 construct: purchased Eurofins DiscoverX KINOMEscan

[10] = molecular target: T10, NEK5 (Homo sapiens, UniProt Q6P3R8)
T10 construct: purchased Eurofins DiscoverX KINOMEscan

[11] = molecular target: T11, PIK3CG (Homo sapiens, UniProt P48736)
T11 construct: purchased Eurofins DiscoverX KINOMEscan

[12] = molecular target: T12, ADCK4 (Homo sapiens, UniProt Q96D53)
T12 construct: purchased Eurofins DiscoverX KINOMEscan

[13] = molecular target: T13, ERBB3 (Homo sapiens, UniProt P21860)
T13 construct: purchased Eurofins DiscoverX KINOMEscan

[14] = molecular target: T14, ZAP70 (Homo sapiens, UniProt P43403)
T14 construct: purchased Eurofins DiscoverX KINOMEscan

[15] = molecular target: T15, OSR1 (Homo sapiens, UniProt O95747)
T15 construct: purchased Eurofins DiscoverX KINOMEscan

[16] = molecular target: T16, BRSK2 (Homo sapiens, UniProt Q8IWQ3)
T16 construct: purchased Eurofins DiscoverX KINOMEscan

[17] = molecular target: T17, KIT-autoinhibited (Homo sapiens, UniProt P10721)
T17 construct: purchased Eurofins DiscoverX KINOMEscan

[18] = molecular target: T18, RIPK5 (Homo sapiens, UniProt Q6XUX3)
T18 construct: purchased Eurofins DiscoverX KINOMEscan

[19] = molecular target: T19, CDKL2 (Homo sapiens, UniProt Q92772)
T19 construct: purchased Eurofins DiscoverX KINOMEscan

[20] = molecular target: T20, MINK (Homo sapiens, UniProt Q8N4C8)
T20 construct: purchased Eurofins DiscoverX KINOMEscan

[21] = molecular target: T21, RSK3(Kin.Dom.1-N-terminal) (Homo sapiens, UniProt Q15349)
T21 construct: RSK3(Kin.Dom.1-N-terminal); purchased Eurofins DiscoverX KINOMEscan

[22] = molecular target: T22, ASK2 (Homo sapiens, UniProt O95382)
T22 construct: purchased Eurofins DiscoverX KINOMEscan

[23] = molecular target: T23, FLT4 (Homo sapiens, UniProt P35916)
T23 construct: purchased Eurofins DiscoverX KINOMEscan

[24] = molecular target: T24, BRAF (Homo sapiens, UniProt P15056)
T24 construct: purchased Eurofins DiscoverX KINOMEscan

[25] = molecular target: T25, JAK1(JH1domain-catalytic) (Homo sapiens, UniProt P23458)
T25 construct: JAK1(JH1domain-catalytic); purchased Eurofins DiscoverX KINOMEscan

[26] = molecular target: T26, GRK3 (Homo sapiens, UniProt P35626)
T26 construct: purchased Eurofins DiscoverX KINOMEscan

[27] = molecular target: T27, ABL1(E255K)-phosphorylated (Homo sapiens, UniProt P00519, E255K)
T27 construct: purchased Eurofins DiscoverX KINOMEscan

[28] = molecular target: T28, DAPK3 (Homo sapiens, UniProt O43293)
T28 construct: purchased Eurofins DiscoverX KINOMEscan

[29] = molecular target: T29, PIP5K2C (Homo sapiens, UniProt Q8TBX8)
T29 construct: purchased Eurofins DiscoverX KINOMEscan

[30] = molecular target: T30, CIT (Homo sapiens, UniProt O14578)
T30 construct: purchased Eurofins DiscoverX KINOMEscan

[31] = molecular target: T31, LYN (Homo sapiens, UniProt P07948)
T31 construct: purchased Eurofins DiscoverX KINOMEscan

[32] = molecular target: T32, SRPK2 (Homo sapiens, UniProt P78362)
T32 construct: purchased Eurofins DiscoverX KINOMEscan

[33] = molecular target: T33, EPHA8 (Homo sapiens, UniProt P29322)
T33 construct: purchased Eurofins DiscoverX KINOMEscan

[34] = molecular target: T34, KIT(V559D,V654A) (Homo sapiens, UniProt P10721, V559D/V654A)
T34 construct: purchased Eurofins DiscoverX KINOMEscan

[35] = molecular target: T35, WNK4 (Homo sapiens, UniProt Q96J92)
T35 construct: purchased Eurofins DiscoverX KINOMEscan

[36] = molecular target: T36, PRKR (Homo sapiens, UniProt P19525)
T36 construct: purchased Eurofins DiscoverX KINOMEscan

[37] = molecular target: T37, ERK3 (Homo sapiens, UniProt Q16659)
T37 construct: purchased Eurofins DiscoverX KINOMEscan

[38] = molecular target: T38, DYRK1B (Homo sapiens, UniProt Q9Y463)
T38 construct: purchased Eurofins DiscoverX KINOMEscan

[39] = molecular target: T39, FYN (Homo sapiens, UniProt P06241)
T39 construct: purchased Eurofins DiscoverX KINOMEscan

[40] = molecular target: T40, AAK1 (Homo sapiens, UniProt Q2M2I8)
T40 construct: purchased Eurofins DiscoverX KINOMEscan

[41] = molecular target: T41, ULK2 (Homo sapiens, UniProt Q8IYT8)
T41 construct: purchased Eurofins DiscoverX KINOMEscan

[42] = molecular target: T42, EIF2AK1 (Homo sapiens, UniProt Q9BQI3)
T42 construct: purchased Eurofins DiscoverX KINOMEscan

[43] = molecular target: T43, IGF1R (Homo sapiens, UniProt P08069)
T43 construct: purchased Eurofins DiscoverX KINOMEscan

T31 sequence (P07948 whole entry): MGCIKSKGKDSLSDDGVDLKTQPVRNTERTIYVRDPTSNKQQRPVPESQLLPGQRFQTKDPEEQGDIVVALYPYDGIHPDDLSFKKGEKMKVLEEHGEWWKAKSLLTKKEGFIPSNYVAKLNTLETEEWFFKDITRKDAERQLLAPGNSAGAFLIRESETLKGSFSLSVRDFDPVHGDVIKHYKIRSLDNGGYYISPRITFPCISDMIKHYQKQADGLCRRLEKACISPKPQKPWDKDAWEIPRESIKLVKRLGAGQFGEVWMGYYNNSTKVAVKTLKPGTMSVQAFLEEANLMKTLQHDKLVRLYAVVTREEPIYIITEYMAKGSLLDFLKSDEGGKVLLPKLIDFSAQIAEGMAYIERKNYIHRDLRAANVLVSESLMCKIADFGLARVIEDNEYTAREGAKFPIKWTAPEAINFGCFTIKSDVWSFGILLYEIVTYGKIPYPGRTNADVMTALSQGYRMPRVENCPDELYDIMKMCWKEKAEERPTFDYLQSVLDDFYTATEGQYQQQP
T21 sequence (Q15349 1-414 limits assumed): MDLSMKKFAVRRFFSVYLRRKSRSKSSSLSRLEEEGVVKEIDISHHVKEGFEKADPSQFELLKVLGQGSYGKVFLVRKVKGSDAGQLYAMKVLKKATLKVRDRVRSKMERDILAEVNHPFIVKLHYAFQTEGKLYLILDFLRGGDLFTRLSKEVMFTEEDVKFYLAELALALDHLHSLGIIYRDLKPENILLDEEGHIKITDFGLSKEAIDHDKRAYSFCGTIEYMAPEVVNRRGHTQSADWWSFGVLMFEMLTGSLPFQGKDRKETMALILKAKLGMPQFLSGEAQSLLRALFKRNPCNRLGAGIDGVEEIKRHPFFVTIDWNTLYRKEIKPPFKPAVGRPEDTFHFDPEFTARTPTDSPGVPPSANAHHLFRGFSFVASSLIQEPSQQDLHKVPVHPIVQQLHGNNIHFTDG
T25 sequence (P23458 854-1154 limits assumed): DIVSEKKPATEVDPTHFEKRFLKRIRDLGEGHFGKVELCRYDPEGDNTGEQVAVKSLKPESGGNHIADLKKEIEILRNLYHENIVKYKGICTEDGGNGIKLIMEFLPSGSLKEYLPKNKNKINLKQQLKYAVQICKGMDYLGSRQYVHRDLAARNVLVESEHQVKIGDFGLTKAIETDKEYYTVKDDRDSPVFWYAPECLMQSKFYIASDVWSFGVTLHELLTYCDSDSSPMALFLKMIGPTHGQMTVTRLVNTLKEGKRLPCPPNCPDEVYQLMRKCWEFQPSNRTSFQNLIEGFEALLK
T35 sequence (Q96J92 whole entry): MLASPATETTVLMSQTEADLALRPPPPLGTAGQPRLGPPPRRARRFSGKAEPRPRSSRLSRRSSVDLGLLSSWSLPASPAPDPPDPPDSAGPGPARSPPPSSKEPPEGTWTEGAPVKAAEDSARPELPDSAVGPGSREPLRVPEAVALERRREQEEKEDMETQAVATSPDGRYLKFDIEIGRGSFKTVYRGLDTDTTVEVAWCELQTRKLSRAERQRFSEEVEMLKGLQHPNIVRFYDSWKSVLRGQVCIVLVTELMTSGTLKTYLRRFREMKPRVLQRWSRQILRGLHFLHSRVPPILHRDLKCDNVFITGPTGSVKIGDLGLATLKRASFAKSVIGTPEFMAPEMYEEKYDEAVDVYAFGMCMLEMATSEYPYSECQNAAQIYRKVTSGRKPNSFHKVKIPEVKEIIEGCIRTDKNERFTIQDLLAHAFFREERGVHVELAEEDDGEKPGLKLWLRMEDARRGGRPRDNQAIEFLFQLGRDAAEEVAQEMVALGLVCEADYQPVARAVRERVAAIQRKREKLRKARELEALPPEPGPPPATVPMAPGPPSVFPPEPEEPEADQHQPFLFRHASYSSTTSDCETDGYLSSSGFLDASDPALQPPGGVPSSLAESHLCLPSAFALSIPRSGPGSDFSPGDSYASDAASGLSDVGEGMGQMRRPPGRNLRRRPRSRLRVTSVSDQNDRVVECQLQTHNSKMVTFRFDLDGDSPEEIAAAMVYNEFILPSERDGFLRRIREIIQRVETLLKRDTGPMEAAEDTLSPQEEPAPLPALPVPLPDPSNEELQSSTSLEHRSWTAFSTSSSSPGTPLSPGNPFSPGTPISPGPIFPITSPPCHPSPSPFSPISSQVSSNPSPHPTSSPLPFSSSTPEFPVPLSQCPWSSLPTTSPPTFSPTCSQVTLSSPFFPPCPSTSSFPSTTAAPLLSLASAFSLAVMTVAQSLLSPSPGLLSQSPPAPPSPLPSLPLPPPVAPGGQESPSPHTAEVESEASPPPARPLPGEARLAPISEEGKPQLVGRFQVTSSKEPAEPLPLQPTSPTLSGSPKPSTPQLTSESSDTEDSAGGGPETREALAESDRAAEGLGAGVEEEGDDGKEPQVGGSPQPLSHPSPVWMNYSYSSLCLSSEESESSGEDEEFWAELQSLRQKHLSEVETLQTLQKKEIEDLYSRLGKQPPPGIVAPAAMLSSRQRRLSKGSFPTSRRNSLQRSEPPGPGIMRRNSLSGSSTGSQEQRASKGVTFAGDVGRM
T36 sequence (P19525 whole entry): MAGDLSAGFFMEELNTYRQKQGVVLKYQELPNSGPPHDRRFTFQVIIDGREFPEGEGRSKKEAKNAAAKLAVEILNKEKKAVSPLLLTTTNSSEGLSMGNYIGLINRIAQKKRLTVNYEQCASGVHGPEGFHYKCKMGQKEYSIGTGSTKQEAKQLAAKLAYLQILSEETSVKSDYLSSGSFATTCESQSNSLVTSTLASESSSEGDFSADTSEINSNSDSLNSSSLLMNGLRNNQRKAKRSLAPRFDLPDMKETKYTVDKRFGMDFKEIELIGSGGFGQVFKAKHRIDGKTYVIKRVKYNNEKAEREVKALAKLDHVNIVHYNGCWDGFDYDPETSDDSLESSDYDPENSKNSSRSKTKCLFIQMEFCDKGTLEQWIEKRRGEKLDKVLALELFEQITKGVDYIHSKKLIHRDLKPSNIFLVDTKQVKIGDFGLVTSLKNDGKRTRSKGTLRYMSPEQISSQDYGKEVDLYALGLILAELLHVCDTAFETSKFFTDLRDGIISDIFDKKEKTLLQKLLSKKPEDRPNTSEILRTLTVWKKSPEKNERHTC
T13 sequence (P21860 20-1342): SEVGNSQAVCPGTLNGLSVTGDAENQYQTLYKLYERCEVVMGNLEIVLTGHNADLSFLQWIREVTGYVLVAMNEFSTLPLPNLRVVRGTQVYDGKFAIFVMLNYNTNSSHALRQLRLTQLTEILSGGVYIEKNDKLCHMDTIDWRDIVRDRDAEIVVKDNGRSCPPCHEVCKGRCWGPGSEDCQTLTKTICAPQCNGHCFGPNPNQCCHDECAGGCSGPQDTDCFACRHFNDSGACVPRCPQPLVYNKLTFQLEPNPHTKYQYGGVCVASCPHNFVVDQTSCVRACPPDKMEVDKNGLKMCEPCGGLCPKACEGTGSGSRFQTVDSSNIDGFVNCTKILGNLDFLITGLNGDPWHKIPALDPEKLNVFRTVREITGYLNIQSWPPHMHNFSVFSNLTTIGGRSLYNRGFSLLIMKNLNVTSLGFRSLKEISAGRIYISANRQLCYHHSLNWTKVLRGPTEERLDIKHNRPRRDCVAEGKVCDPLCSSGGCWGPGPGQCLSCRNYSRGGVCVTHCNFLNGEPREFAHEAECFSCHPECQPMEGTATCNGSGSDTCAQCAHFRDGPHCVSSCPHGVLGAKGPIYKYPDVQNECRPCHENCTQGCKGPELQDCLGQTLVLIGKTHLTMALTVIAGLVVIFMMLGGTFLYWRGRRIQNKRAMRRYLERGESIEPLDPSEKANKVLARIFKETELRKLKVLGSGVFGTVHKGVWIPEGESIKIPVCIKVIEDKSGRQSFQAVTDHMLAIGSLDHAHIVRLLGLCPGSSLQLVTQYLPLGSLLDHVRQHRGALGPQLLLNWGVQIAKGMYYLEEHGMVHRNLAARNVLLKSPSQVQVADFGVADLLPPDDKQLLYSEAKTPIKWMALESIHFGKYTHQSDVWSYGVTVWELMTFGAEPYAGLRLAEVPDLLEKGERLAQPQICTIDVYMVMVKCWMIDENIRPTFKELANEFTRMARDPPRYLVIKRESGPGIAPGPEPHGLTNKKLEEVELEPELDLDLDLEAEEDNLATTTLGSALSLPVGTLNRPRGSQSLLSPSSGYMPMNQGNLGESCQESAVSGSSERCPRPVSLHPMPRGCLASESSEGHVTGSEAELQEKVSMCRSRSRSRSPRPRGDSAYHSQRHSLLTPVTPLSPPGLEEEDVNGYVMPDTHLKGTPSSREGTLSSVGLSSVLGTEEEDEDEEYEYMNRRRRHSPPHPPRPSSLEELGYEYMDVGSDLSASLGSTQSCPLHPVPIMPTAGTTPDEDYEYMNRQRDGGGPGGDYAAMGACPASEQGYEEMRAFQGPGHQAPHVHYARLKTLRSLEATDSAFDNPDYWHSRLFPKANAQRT
T14 sequence (P43403 whole entry): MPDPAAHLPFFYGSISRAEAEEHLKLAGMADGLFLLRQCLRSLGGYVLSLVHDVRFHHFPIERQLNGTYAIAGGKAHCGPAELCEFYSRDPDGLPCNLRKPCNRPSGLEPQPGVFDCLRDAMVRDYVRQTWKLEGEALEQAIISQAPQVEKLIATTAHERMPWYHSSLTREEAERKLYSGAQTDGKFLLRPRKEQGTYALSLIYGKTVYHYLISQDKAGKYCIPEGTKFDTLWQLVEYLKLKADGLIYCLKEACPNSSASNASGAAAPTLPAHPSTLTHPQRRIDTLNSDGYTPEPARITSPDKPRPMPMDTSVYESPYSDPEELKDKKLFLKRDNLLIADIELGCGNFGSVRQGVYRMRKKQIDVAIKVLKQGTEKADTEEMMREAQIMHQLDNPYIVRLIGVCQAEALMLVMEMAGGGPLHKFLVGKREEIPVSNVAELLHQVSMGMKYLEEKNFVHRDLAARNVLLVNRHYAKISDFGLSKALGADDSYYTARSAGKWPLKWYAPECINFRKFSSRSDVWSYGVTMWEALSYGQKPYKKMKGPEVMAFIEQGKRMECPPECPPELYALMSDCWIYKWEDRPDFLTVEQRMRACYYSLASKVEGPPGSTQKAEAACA

## CC(C)NC(=O)COc1cccc(-c2nc(Nc3ccc4[nH]ncc4c3)c3ccccc3n2)c1 [KD025, 2-(3-(4-((1H-indazol-5-yl)amino)quinazolin-2-yl)phenoxy)-N-isopropylacetamide]
[1]
  remaining binding at 10 µM: 72%
[2]
  remaining binding at 10 µM: 88%
[3]
  remaining binding at 10 µM: 91%
[4]
  remaining binding at 10 µM: 96%
[5]
  remaining binding at 10 µM: 88%
[6]
  remaining binding at 10 µM: 41%
[7]
  remaining binding at 10 µM: 99%
[8]
  remaining binding at 10 µM: 60%
[9]
  remaining binding at 10 µM: 95%
[10]
  remaining binding at 10 µM: 83%
[11]
  remaining binding at 10 µM: 82%
[12]
  remaining binding at 10 µM: 100%
[13]
  remaining binding at 10 µM: 79%
[14]
  remaining binding at 10 µM: 63%
[15]
  remaining binding at 10 µM: 100%
[16]
  remaining binding at 10 µM: 95%
[17]
  remaining binding at 10 µM: 78%
[18]
  remaining binding at 10 µM: 64%
[19]
  remaining binding at 10 µM: 100%
[20]
  remaining binding at 10 µM: 71%
[21]
  remaining binding at 10 µM: 31%
[22]
  remaining binding at 10 µM: 95%
[23]
  remaining binding at 10 µM: 86%
[24]
  remaining binding at 10 µM: 85%
[25]
  remaining binding at 10 µM: 99%
[26]
  remaining binding at 10 µM: 84%
[27]
  remaining binding at 10 µM: 67%
[28]
  remaining binding at 10 µM: 35%
[29]
  remaining binding at 10 µM: 71%
[30]
  remaining binding at 10 µM: 75%
[31]
  remaining binding at 10 µM: 100%
[32]
  remaining binding at 10 µM: 66%
[33]
  remaining binding at 10 µM: 88%
[34]
  remaining binding at 10 µM: 92%
[35]
  remaining binding at 10 µM: 100%
[36]
  remaining binding at 10 µM: 54%
[37]
  remaining binding at 10 µM: 64%
[38]
  remaining binding at 10 µM: 64%
[39]
  remaining binding at 10 µM: 61%
[40]
  remaining binding at 10 µM: 29%
[41]
  remaining binding at 10 µM: 87%
[42]
  remaining binding at 10 µM: 77%
[43]
  remaining binding at 10 µM: 56%
